Series [1] concerns the target T1, Src (Homo sapiens, UniProt P12931).
T1 construct: purchased Invitrogen PR4336E
The series is described as follows: Cell-free kinase assay (Reaction Biology, ADP-Glo). It is filed as biochemical. The settings on record: for inhibition at 0.5 µM: inhibitor 500 nM, 100 μM ATP, average of duplicate. As to the method:
(§1) Cell-free kinase activity assays were performed at Reaction Biology Corporation. Briefly, kinases were incubated with substrates, 100 μM ATP and a 3-fold serial dilution of compounds starting at 1 μM. DMSO was used as control. […] Experiments were performed in duplicates. The concentrations of kinases and substrates used in the assays are indicated on Table S1. Kinase activity was quantified using the ADP-Glo™ Kinase Assay System (Promega, Madison, WI) following the manufacturer's recommendations.
(ADP-Glo first removes unused ATP, then detects ADP through luciferase.)

In series [2] the test system is MV4–11-luc cells. The series is described as follows: In vivo efficacy, orthotopic human AML model. The conditions noted are these: for reduction in leukemia burden: 25 mg/kg i.p. three times a week (MWF), NSG or NRG mice. The procedure: The in vivo efficacy of compounds was assessed in an orthotopic human AML model in NSG (NOD scid gamma, NOD-scid IL2Rg^null) mice that were bred at University of Maryland Baltimore (mating pairs acquired from Jackson Laboratories; Maine). […]. Three days later, engraftment was assessed by imaging on a Xenogen IVIS-2 Imaging System (Alameda) after an intraperitoneal (IP) injection of 150 mg/kg luciferin. Mice were sorted into four or five groups (n = 5) so that mean intensity (i.e., disease burden) was equal. Dosing started on day of sorting. Compounds were dissolved in 85% PBS (pH 7.4) buffer containing 10% DMSO and 5% Cremophore. The vehicle (buffer without compounds) was used as control. Mice were injected 3 to 5 days per week via IP injection. Mice were weighed on day of dosing and imaged once per week. […]. All mice were housed in a 12-h light/dark cycle with access to food and water ad libitum. Studies were performed with Institutional Animal Care and Use Committee (UMB and Purdue University) approval.
[…]. Female mice were dosed daily for 5 days via intraperitoneal injection and then monitored for an additional week for weight loss, a sign of toxicity in mice. […] To evaluate the anti-leukemic efficacy in vivo, six-week-old female NSG or NRG mice were injected intravenously with FLT3-ITD expressing acute myeloid leukemia cells (MV4–11), expressing luciferase. […] Dosing (i.p) with the compounds was then started. The mice were dosed with 25 mg/kg of the compounds three times a week (MWF). […] […].

Series [3] deals with T2, FLT3 (Homo sapiens, UniProt P36888).
T2 construct: purchased Invitrogen PV3182
T2 sequence (P36888 564-993 limits assumed): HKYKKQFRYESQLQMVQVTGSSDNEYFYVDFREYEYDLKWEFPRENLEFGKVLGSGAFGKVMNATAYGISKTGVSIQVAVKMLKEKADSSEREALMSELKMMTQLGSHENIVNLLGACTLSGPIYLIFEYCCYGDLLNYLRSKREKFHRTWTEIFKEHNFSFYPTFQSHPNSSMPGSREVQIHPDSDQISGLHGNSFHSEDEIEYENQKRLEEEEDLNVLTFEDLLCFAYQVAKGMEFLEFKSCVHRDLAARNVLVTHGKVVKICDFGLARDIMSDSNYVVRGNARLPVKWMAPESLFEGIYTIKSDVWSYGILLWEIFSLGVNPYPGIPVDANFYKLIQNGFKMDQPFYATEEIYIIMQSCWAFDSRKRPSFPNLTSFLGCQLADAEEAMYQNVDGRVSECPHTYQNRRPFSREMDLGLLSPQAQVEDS
The series is described as follows: Cell-free kinase assay, single dose (Reaction Biology, ADP-Glo). It is filed as biochemical. The conditions noted are these: inhibitor 500 nM; 100 μM ATP; average of duplicate. As to the method:
Cell-free kinase activity assays were performed at Reaction Biology Corporation. […] DMSO was used as control. […] Experiments were performed in duplicates. The concentrations of kinases and substrates used in the assays are indicated on Table S1. Kinase activity was quantified using the ADP-Glo™ Kinase Assay System (Promega, Madison, WI) following the manufacturer's recommendations.

The test system of series [4] is MOLM-14 (ITD, D835Y) cells. Description: Antiproliferative activity (CellTitre-Blue, 72 h). It is filed as cell-based, human. The conditions noted are these: 72 h incubation, triplicates, read-out: IC50 (mean ±SD, nM) MOLM-14 (ITD, D835Y). As to the method:
(§2) Cells were seeded into 96-well tissue culture-treated plates at 2.0 × 10^4 cells/mL for up to 24 h. DMSO stock solutions of compounds were serially diluted first in DMSO and subsequently into RPMI before being added to the cell cultures in triplicates, with 10 μM being the highest tested concentration. The plates were incubated for 72 h as above. The CellTitre-Blue assay (Promega, Madison WI) was then added to the cultures and incubated a further 4 h before the fluorescence measured following the manufacturers recommendations. The fluorescence data from compounds were normalized to that DMSO and the resulting data fitted to a non-linear regression equation to obtain IC50 using GraphPad Prism 5.0 Software (La Jolla, CA, USA).

The subject of series [5] is MV4–11 cells. Description: Antiproliferative activity (CellTitre-Blue, 72 h). It is filed as cell-based, human. The conditions noted are these: Homo sapiens, MV4-11, 72 h, 72 h incubation, triplicates; read-out: IC50 (mean ±SD, nM) MV4–11. As to the method: as §2
Series [6] relates to MOLM-14 cells. The series is described as follows: Antiproliferative activity (CellTitre-Blue, 72 h). It is filed as cell-based, human. The conditions noted are these: Homo sapiens, MOLM-14; 72 h incubation, triplicates; read-out: IC50 (mean ±SD, nM) MOLM-14. As to the method: as §2
For series [7], the system named is MOLM-14 (ITD, F691 L) cells. The series is described as follows: Antiproliferative activity (CellTitre-Blue, 72 h). It is filed as cell-based, human. The conditions noted are these: 72 h incubation, triplicates, read-out: IC50 (mean ±SD, nM) MOLM-14 (ITD, F691 L). As to the method: as §2
Series [8] has as its target FLT3-ITD (Homo sapiens, UniProt P36888, ITD). The series is described as follows: Cell-free kinase assay, dose-response (Reaction Biology, ADP-Glo). It is filed as biochemical. The settings on record: FLT3-ITD 100 nM; ATP 100 μM; read-out: IC50 against FLT3-ITD. As to the method: as §1

Data on two compounds can be found in article PMC6413339 (EBioMedicine, 2019).

A word on the inhibition: it is how much of the control response was suppressed. Higher therefore signals a strong effect. What is called IC50 is the concentration at which inhibition is half-maximal.

Each structure is given as a SMILES string. Read-outs that look alike come from different tables or passages of the source.

T1 sequence (P12931 whole entry): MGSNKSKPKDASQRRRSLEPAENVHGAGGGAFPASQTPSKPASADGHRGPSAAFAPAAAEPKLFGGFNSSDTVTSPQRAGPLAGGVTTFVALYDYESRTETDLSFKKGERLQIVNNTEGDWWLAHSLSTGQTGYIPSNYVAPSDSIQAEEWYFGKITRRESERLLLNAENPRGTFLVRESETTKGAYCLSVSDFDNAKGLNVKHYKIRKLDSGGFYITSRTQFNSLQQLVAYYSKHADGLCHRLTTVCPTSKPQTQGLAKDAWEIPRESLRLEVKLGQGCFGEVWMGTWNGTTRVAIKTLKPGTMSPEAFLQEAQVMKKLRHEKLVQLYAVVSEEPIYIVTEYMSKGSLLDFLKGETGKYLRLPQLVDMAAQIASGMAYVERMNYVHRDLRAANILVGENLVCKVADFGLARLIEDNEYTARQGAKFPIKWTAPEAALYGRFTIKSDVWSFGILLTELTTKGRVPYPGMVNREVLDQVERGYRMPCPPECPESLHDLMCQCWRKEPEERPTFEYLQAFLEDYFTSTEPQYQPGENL

As for `Cc1ncc(C(=O)Nc2ccc(CN3CCN(C)CC3)c(C(F)(F)F)c2)cc1C#Cc1c(N)ncc2ccccc12` [Compound 5], the inhibition at 0.5 µM in series [1] amounted to 100%; in series [3], 99%. Also, in series [2], the “reduction in leukemia burden” value is on record as greater than 99%. Besides, the half-maximal inhibitory concentration (IC50) in series [4] (Homo sapiens, MOLM-14, 72 h) was determined as 13 ± 0.4 nM; in series [5] it was 0.4 ± 0.004 nM; in series [6] it was 2.8 ± 0.02 nM; in series [7] (Homo sapiens, MOLM-14, 72 h), 1.5 ± 0.1 nM.
On to `Cc1ncc(C(=O)Nc2ccc(CN3CCN(C)CC3)c(C(F)(F)F)c2)cc1C#Cc1cnc(N)c2ncccc12` [Compound 20], for which the IC50 in series [1] (Src 0.6 nM, ATP 100 μM, read-out: IC50 against Src) amounted to 12.2 nM; in series [8], 4.8 nM; in series [4] (listed as 20 (HSN459)) it was 4 ± 0.02 nM; in series [5], 0.3 ± 0.004 nM; in series [6], 0.2 ± 0.002 nM; in series [7] (listed as 20 (HSN459)) it was 0.9 ± 0.004 nM. The inhibition at 0.5 µM in series [1] came out at 100%; in series [3], 97%. For the same compound, in series [2] (25 mg/Kg i.p. three times a week, after one week), the “body weight in efficacy study” value is “lost weight”. In addition, in series [2], the “reduction in leukemia burden” value is reported as greater than 99%. The “tolerability in efficacy study” value in series [2] (dose reduced to 10 mg/kg) is “tolerable”.
